Test results taken from patent US12054497B2, “Substituted heterocyclic fused cyclic compound, preparation method therefor and pharmaceutical use thereof” (GENFLEET THERAPEUTICS (SHANGHAI) INC., priority 2019, dated 2024).
Where two headings read alike, the source gives them in different places.

What was measured:
[1] = test system: phosphorylated ERK in MIA PaCa2 cells with Kras G12C mutation; assay: p-ERK HTRF assay for cells (Test Example 2); format: cell-based, human
Outline: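 MIA PaCa2 cells (2.5E4/well, seeded overnight) treated 2 h with compound in a 3.16-fold series at 0.1% DMSO. Cells lysed 30 min; p-ERK read by HTRF after 4 h antibody incubation. Inhibition relative to DMSO and blank; IC50 by four-parameter fit.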

[2] = Pharmacokinetic evaluation on mice, intragastric (PO) administration (Test Example 6); format: in vivo; conditions: mouse, plasma, PO 15 mg/kg, male CD-1 mice; for bioavailability: read-out: F (bioavailability); for Cmax: read-out: Cmax; for Tmax: read-out: Tmax
Experimental: Experimental objective: male CD-1 mice were chosen as tested animals, and the LC-MS-MS method was employed to measure the concentrations of a tested compound in blood plasma of a mouse intravenously and intragastrically administrated with the tested compound at different times. The pharmacokinetic behaviors of tested compounds in mice were studied, and the pharmacokinetic characteristics thereof were evaluated.
Experimental scheme: experimental animals: 18 healthy adult male CD-1 mice (6 to 8 weeks old, and body weight about 30 g) were divided into 6 groups according to the principle of similar body weights: 3 mice in each of IV groups (3 groups), and 3 mice in each of PO groups (3 groups). The animals were purchased from Shanghai Jihui Laboratory Animal Care Co., Ltd.
Formulation: IV group: taking 10 mL of sample solution for example, 4 mg of sample was weighed, orderly added with 0.5 mL of DMSO and […], then added with […] of HP-p-CD, finally added with water to a constant volume of 10 mL, and stirred and subjected to ultrasonic irradiation, thereby obtaining a 0.4 mg/mL clear solution. PO group: an appropriate amount of sample was weighed, orderly added with appropriate amounts of Labrasol and water in a volume ratio of 10:40, and stirred and subjected to ultrasonic irradiation, thereby obtaining a 1.5 mg/mL uniform solution.
Administration: after being deprived of food for one night, the IV groups were intravenously administrated with the formulated solutions, respectively, with an injection volume of 5 mL/kg and a dosage of 2 mg/kg. The PO groups were intragastrically administrated with the formulated solutions, respectively, with an injection volume of […] and a dosage of 15 mg/kg.
Experimental operations: after the intravenous injection groups and the intragastric administration groups of the male CD-1 mice were administrated with the tested compounds, 110 ul of blood was sampled at the following time points: 0.0833, 0.25, 0.5, 1, 2, 4, 6, 8, and 24 hours. The sampled blood was placed into an anticoagulant tube which was added with K2EDTA in advance and preserved in dry ice. The tube was centrifuged for 15 minutes to separate blood plasma, and the separated blood plasma was preserved at −70° C. The animals were allowed to be fed after 4 hours of administration. The LC-MS-MS method was employed to measure the concentration of the tested compounds in the blood plasma after the intravenous and intragastric administration to the mice. The linear range of the method was 1-3000 ng/ml. The blood plasma samples were analyzed after protein precipitation with ACN.

[3] = test system: A549 cells with Kras G12S mutation; assay: Cell proliferation inhibition experiment, 3D spheroid, CellTiter-Glo (Test Example 1); format: cell-based, human; conditions: 5 days
Outline: (§1)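 NCI-H358 (800 cells/well) and A549 (400 cells/well) grown overnight as 3D spheroids in 2% FBS medium, then exposed to compound dilution series (3.16-fold, 0.1% DMSO) for 5 days. CellTiter-Glo luminescence read; inhibition relative to DMSO and blank, IC50 by four-parameter fit.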

[4] = test system: NCI-H358 cells with Kras G12C mutation; assay: as above; format: cell-based, human; conditions: 5 days
Outline: as §1

[5] = Homo sapiens, MIA PaCa-2, 2 h, MIA PaCa2 cells, 2 hours with compound, read-out: p-ERK IC50
[6] = MIA PaCa2 cells, 2 hours with compound, read-out: p-ERK IC50

Compound | IC50 [1, 5] [µM] | bioavailability [2] [%] | Cmax [2] [ng/mL] | Tmax [2] [h] | IC50 [3] [µM] | IC50 [4] [µM] | IC50 ([3]; Homo sapiens, A549, 120 h) [µM] | IC50 ([4]; Homo sapiens, NCI-H358, 120 h) [µM] | IC50 ([1]; Homo sapiens, MIA PaCa-2, 2 h, read-out: p-ERK IC50, MIA PaCa2 cells, 2 hours with compound) [µM] | IC50 ([1]; read-out: p-ERK IC50, MIA PaCa2 cells, 2 hours with compound) [µM] | IC50 [1, 6] [µM]
C=CC(=O)N1CCN2c3c(c(=O)n(-c4c(C)ccnc4C(C)C)c4nc(-c5c(O)cccc5F)c(F)cc34)N(C)C(=O)[C@H]2C1 (single isomer, unassigned) [Compound Z9-2] | 0.221 | 103 | 13200 | 1 | > 10 | 0.015 |  |  |  |  | 
C=CC(=O)N1CCN2c3c(c(=O)n(-c4c(C)ccnc4C(C)C)c4nc(-c5c(O)cccc5F)c(F)cc34)OC[C@H]2C1 [Compound Z1, (4aR)-3-acryloyl-11-fluoro-10-(2-fluoro-6-hydroxyphenyl)-8-(2-isopropyl-4-methylpyridin-3-yl)-1,2,3,4,4a,5-hexahydropyrazino[1′,2′:4,5][1,4]oxazino[2,3-c][1,8]naphthyridin-7(8H)-one] | 0.432 |  | 2600 | 0.25 |  |  | > 10 | 0.031 |  |  | 
C=CC(=O)N1CCN2c3c(c(=O)n(-c4c(C)ccnc4C(C)C)c4nc(-c5c(O)cccc5F)c(Cl)cc34)N(C)C(=O)[C@H]2C1 (single isomer, unassigned) [Compound Z25-2] |  | 93.5 | 6640 | 1.93 | > 30 | 0.003 |  |  | 0.029 |  | 
C=CC(=O)N1CCN2c3c(c(=O)n(-c4c(C(C)C)ncnc4C(C)C)c4c(F)c(-c5c(O)cccc5F)c(Cl)cc34)NC(=O)[C@H]2C1 (single isomer, unassigned) [Compound Z37-1] | 0.011 |  |  |  | > 30 | 0.0007 |  |  |  |  | 
[2H]C([2H])([2H])N1C(=O)[C@H]2CN(C(=O)C=C)CCN2c2c1c(=O)n(-c1c(C)ccnc1C(C)C)c1nc(-c3c(O)cccc3F)c(Cl)cc21 (single isomer, unassigned) [Compound Z26-2] |  |  |  |  | > 30 | 0.003 |  |  |  | 0.062 | 
C=CC(=O)N1C[C@@H]2C(=O)N(C)c3c(c4cc(F)c(-c5c(O)cccc5F)nc4n(-c4c(C)ccnc4C(C)C)c3=O)N2C[C@H]1C (single isomer, unassigned) [Compound Z10-2] |  | 59.2 | 3960 | 1 | 24.6 | 0.004 |  |  |  |  | 0.034
C=CC(=O)N1C[C@@H]2C(=O)N(C)c3c(c4cc(Cl)c(-c5c(O)cccc5F)nc4n(-c4c(C)ccnc4C(C)C)c3=O)N2C[C@H]1C (single isomer, unassigned) [Compound Z27-2] |  | 96.8 | 3660 | 1.74 | 19 | 0.001 |  |  |  |  | 0.011
C=CC(=O)N1CCN2c3c(c(=O)n(-c4c(C(C)C)ncnc4C(C)C)c4nc(-c5c(O)cccc5F)c(Cl)cc34)N(C)C(=O)[C@H]2C1 [Compound Z48] | 0.052 | 38.1 | 1250 | 0.5 |  |  | > 10 | 0.003 |  |  | 
